Source: PubChem BioAssay (NCI)
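Method: 48-hour compound exposure of cells in 96-well plates, five concentrations, linear interpolation of endpoints. At the GI50, growth is halved. TGI denotes the concentration required for complete inhibition of growth.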

How the values were obtained:
Assay in all cases: NCI anticancer screen, dose series, 48 h
[1] = tested on: 786-0 renal
[2] = tested on: A498 renal
[3] = tested on: A549 NSCLC
[4] = tested on: ACHN renal
[5] = tested on: BT-549 breast
[6] = tested on: CAKI-1 renal
[7] = tested on: CCRF-CEM leukemia
[8] = tested on: COLO 205 colon
[9] = tested on: DU-145 prostate
[10] = tested on: EKVX NSCLC
[11] = tested on: HCC-2998 colon
[12] = tested on: HCT-116 colon
[13] = tested on: HCT-15 colon
[14] = tested on: HL-60(TB) leukemia
[15] = tested on: HOP-62 NSCLC
[16] = tested on: HOP-92 NSCLC
[17] = tested on: HS 578T breast
[18] = tested on: HT29 colon
[19] = tested on: IGROV1 ovarian
[20] = tested on: K-562 leukemia
[21] = tested on: KM12 colon
[22] = tested on: LOX IMVI melanoma
[23] = tested on: M14 melanoma
[24] = tested on: MALME-3M melanoma
[25] = tested on: MCF7 breast
[26] = tested on: MDA-MB-231 breast
[27] = tested on: MDA-MB-435
[28] = tested on: MDA-MB-468 breast
[29] = tested on: MOLT-4 leukemia
[30] = tested on: NCI-H226 lung
[31] = tested on: NCI-H23 lung
[32] = tested on: NCI-H460 lung
[33] = tested on: NCI-H522 lung
[34] = tested on: NCI/ADR-RES ovarian
[35] = tested on: OVCAR-3 ovarian
[36] = tested on: OVCAR-4 ovarian
[37] = tested on: OVCAR-5 ovarian
[38] = tested on: OVCAR-8 ovarian
[39] = tested on: PC-3 prostate
[40] = tested on: RPMI-8226 leukemia
[41] = tested on: RXF 393 renal
[42] = tested on: SF-268 CNS
[43] = tested on: SF-295 CNS
[44] = tested on: SF-539 CNS
[45] = tested on: SK-MEL-2 melanoma
[46] = tested on: SK-MEL-28 melanoma
[47] = tested on: SK-MEL-5 melanoma
[48] = tested on: SK-OV-3 ovarian
[49] = tested on: SN12C renal
[50] = tested on: SNB-19 CNS
[51] = tested on: SNB-75 CNS
[52] = tested on: SR leukemia
[53] = tested on: SW-620 colon
[54] = tested on: T-47D breast
[55] = tested on: TK-10 renal
[56] = tested on: U251 CNS
[57] = tested on: UACC-257 melanoma
[58] = tested on: UACC-62 melanoma
[59] = tested on: UO-31 renal

COc1ccc(Cc2nn(CC(=O)N/N=C/c3ccc(Br)cc3)c(=O)c3c(C)noc23)cc1
GI50 [1]: 1.48 µM
TGI [1]: 6.94 µM
GI50 [2]: 3.01 µM
TGI [2]: 8.8 µM
GI50 [3]: 1.49 µM
TGI [3]: > 100 µM
GI50 [4]: 2.65 µM
TGI [4]: 11.2 µM
GI50 [5]: 18.2 µM
TGI [5]: 58 µM
GI50 [6]: 5.21 µM
TGI [6]: 19.1 µM
GI50 [7]: 7.87 µM
TGI [7]: > 100 µM
GI50 [8]: > 100 µM
TGI [8]: > 100 µM
GI50 [9]: 16.1 µM
TGI [9]: > 100 µM
GI50 [10]: 14.5 µM
TGI [10]: 83.1 µM
GI50 [11]: 34.5 µM
TGI [11]: > 100 µM
GI50 [12]: 0.81 µM
TGI [12]: 10.3 µM
GI50 [13]: 12.3 µM
TGI [13]: > 100 µM
GI50 [14]: > 100 µM
TGI [14]: > 100 µM
GI50 [15]: 10.6 µM
TGI [15]: 26.4 µM
GI50 [16]: 4.98 µM
TGI [16]: 21.2 µM
GI50 [17]: 3.61 µM
TGI [17]: 61.2 µM
GI50 [18]: 5.05 µM
TGI [18]: > 100 µM
GI50 [19]: 12.4 µM
TGI [19]: 32.3 µM
GI50 [20]: 14.8 µM
TGI [20]: > 100 µM
GI50 [21]: > 100 µM
TGI [21]: > 100 µM
GI50 [22]: 3.54 µM
TGI [22]: 52.8 µM
GI50 [23]: 18.5 µM
TGI [23]: > 100 µM
GI50 [24]: 5.48 µM
TGI [24]: 29.1 µM
GI50 [25]: 3.44 µM
TGI [25]: > 100 µM
GI50 [26]: 5.73 µM
TGI [26]: 25.8 µM
GI50 [27]: 30.5 µM
TGI [27]: > 100 µM
GI50 [28]: 7.58 µM
TGI [28]: 27.4 µM
GI50 [29]: 7.82 µM
TGI [29]: > 100 µM
GI50 [30]: 2.52 µM
TGI [30]: 13.4 µM
GI50 [31]: 7.06 µM
TGI [31]: 22.8 µM
GI50 [32]: 1.56 µM
TGI [32]: 16.4 µM
GI50 [33]: 8.77 µM
TGI [33]: 41.6 µM
GI50 [34]: 4.6 µM
TGI [34]: > 100 µM
GI50 [35]: 2.27 µM
TGI [35]: 10.9 µM
GI50 [36]: 0.511 µM
TGI [36]: 2.12 µM
GI50 [37]: 16.8 µM
TGI [37]: > 100 µM
GI50 [38]: 17.4 µM
TGI [38]: > 100 µM
GI50 [39]: 10.4 µM
TGI [39]: > 100 µM
GI50 [40]: 69.9 µM
TGI [40]: > 100 µM
GI50 [41]: 2.75 µM
TGI [41]: 11.4 µM
GI50 [42]: 14.8 µM
TGI [42]: 52.6 µM
GI50 [43]: 10.3 µM
TGI [43]: 23.4 µM
GI50 [44]: 11.9 µM
TGI [44]: 25.4 µM
GI50 [45]: 16.4 µM
TGI [45]: 32.1 µM
GI50 [46]: 36.9 µM
TGI [46]: > 100 µM
GI50 [47]: > 100 µM
TGI [47]: > 100 µM
GI50 [48]: 5.55 µM
TGI [48]: 20.1 µM
GI50 [49]: 1.63 µM
TGI [49]: 11.5 µM
GI50 [50]: 14.6 µM
TGI [50]: 33.1 µM
GI50 [51]: 0.287 µM
TGI [51]: 1.41 µM
GI50 [52]: 14.6 µM
TGI [52]: > 100 µM
GI50 [53]: 3.07 µM
TGI [53]: > 100 µM
GI50 [54]: 0.97 µM
TGI [54]: 9.48 µM
GI50 [55]: 10.1 µM
TGI [55]: 23.9 µM
GI50 [56]: 2.03 µM
TGI [56]: 13.4 µM
GI50 [57]: > 100 µM
TGI [57]: > 100 µM
GI50 [58]: 14.1 µM
TGI [58]: > 100 µM
GI50 [59]: 2.98 µM
TGI [59]: 15.3 µM
